Assay results published in publication PMC9445589, “Apolipoprotein E mimetic peptide COG1410 combats pandrug-resistant Acinetobacter baumannii” (Frontiers in Microbiology, 2022).
≈ marks a conversion by molar mass, not a printed value. Where “and” joins values, the source holds several entries; their conditions need not be identical. Identical values can stand only once. Like-named read-outs stand apart in the source and are kept apart here.

Tests used:
[1] = system: PDR Acinetobacter baumannii YQ4; assay: microbe, parasite or virus in culture; type: cell-based
Protocol: Strain stocks were maintained at −80°C in 10% glycerol. Bacteria were streaked on fresh plates before each experiment. Most of them were cultured in LB broth containing 10 g/L NaCl at 37°C, except for Mycobacteria in 7H9 broth and Enterococcus in BHI broth. Porphyromonas gingivalis was cultured in BHI broth supplemented with 1 μg/ml vitamin k1, 5 μg/ml hemin, and 5 mg/ml L-cysteine hydrochloride at 37°C in the anaerobic chamber. The minimal inhibitory concentrations (MICs) of antimicrobials were determined using the microdilution method in the corresponding broth.
The pandrug-resistant A. baumannii YQ4 was collected from the clinical laboratory of the second hospital in Nanjing. The complete genome was sequenced by Nanopore, and the data were deposited in the GenBank with accession number CP053033.

[2] = system: PDR A. baumannii strain YQ4; assay: checkerboard synergy, fractional inhibitory concentration (FIC); type: cell-based, Acinetobacter baumannii; conditions: checkerboard method, 37°C, 20 h, two independent experiments
[3] = system: Pseudomonas aeruginosa; conditions: cited from earlier work
Excerpt: (§1) Supplement Table_1.DOCX, table 1: Table S1. Antibacterial effect of ApoE-derived peptides. | column: MIC (μM) || However, the current pipeline of novel antibiotic development is stagnant, which could not keep pace with these evolving pathogens. The pharmaceutical field turns to seek non-conventional anti-infective agents. The antimicrobial peptides (AMPs) have drawn a lot of attention as novel chemotherapeutic candidates because of their unique mechanisms of action (Mahlapuu et al., [2016]). It is known that the sources of AMPs are diverse, ranging from prokaryotes to humans (Zhang and Gallo, [2016]). One of the most promising AMPs is the protein mimetic peptide, which originates from a functional protei ...

[4] = system: Escherichia coli; conditions: cited from earlier work
Excerpt: as §1

[5] = system: Staphylococcus aureus; conditions: cited from earlier work
Excerpt: (§2) Supplement Table_1.DOCX, table 1: Table S1. Antibacterial effect of ApoE-derived peptides. | column: MIC (μM)

[6] = system: Enterococcus faecium; conditions: ref (1); cited from earlier work
Excerpt: as §2

[7] = system: Acinetobacter baumannii; conditions: ref (1); cited from earlier work
Excerpt: as §1

[8] = system: Klebsiella pneumoniae; conditions: cited from earlier work
Excerpt: as §2

[9] = system: A. baumannii; conditions: ref De Breij et al., [2018], cited from earlier work
Protocol: The major challenge for the therapeutic application of AMP is the degradation or inactivation in plasma (Dijksteel et al., [2021]). The bactericidal efficacy of COG1410 was further assessed in plasma. The LC99.9 values of COG1410 in PBS and 50% pooled plasma were 1.4 and 5.6 μM, respectively. This was even better than LL-37-derived AMP, SAAP-148, of which the corresponding LC99.9 values were 1.6 and 12.8 μM, against A. baumannii, respectively (De Breij et al., [2018]).

[10] = system: A. baumannii YQ4; assay: ATP leak assay; type: cell-based, Acinetobacter baumannii; conditions: 16 μg/ml COG1410, 16 μg/ml polymyxin B or 32 μg/ml tigecycline (1× MIC), PBS, 37°C, 30 min
Protocol: ATP leak assay was performed using the Enhanced ATP Assay Kit of Beyotime ([…]) according to the manufacturer's manual. […] The supernatant was harvested and used for the measurement of ATP levels. In total, 100 μl of supernatant was mixed with 100 μl of working solution, and the chemiluminescence was measured by using a Biotek Synergy H1 plate reader. The untreated sample was set as a negative control. The experiments were performed in triplicate.

[11] = system: A. baumannii YQ4; assay: Live/Dead BacLight SYTO-9/PI staining, confocal microscopy; type: cell-based, Acinetobacter baumannii
Protocol: The damage to the cytoplasmic membrane was determined as described previously (Farkas et al., [2017]), with the Live/Dead BacLight bacterial viability kit (Invitrogen L7012). The log-phase culture of A. baumannii YQ4 was washed two times and suspended in PBS with the final OD600 of 0.1. […] Then, the cells were stained with 7.5 μM SYTO-9 and 30 μM propidium iodide (PI) in dark for 15 min. In total, 5 μl of culture was spotted on a clean slide coated with a thin layer of 1% agarose. The fluorescence was observed by Olympus FV3000 confocal laser scanning microscope. For SYTO-9, the excitation and emission were 483 and 503 nm, respectively. For PI, the excitation and emission were 493 and 636 nm, respectively.

[12] = system: A. baumannii YQ4; assay: transmission electron microscopy (TEM) of treated cells
[13] = system: A. baumannii YQ4; assay: scanning electron microscopy (SEM) of treated cells; type: cell-based, Acinetobacter baumannii
Protocol: The log-phase culture of A. baumannii YQ4 was prepared as described above, harvested, and washed once with PBS. The pellets were suspended in PBS supplemented with 1 × COG1410 (16 μg/ml) or 1 × polymyxin B (16 μg/ml) and incubated at 37°C for 30 min. The untreated culture was used as a positive control to observe the morphology of the intact cell. […] After washing three times with PBS, the cells were post-fixed in 1% osmium at 4 °C for 1 h. After washing in distilled water for 1 h, the bacteria were dehydrated in the ascending concentrations of ethanol. Finally, these samples were transferred to ThermoFisher Quattro SEM for image collection after tert-butanol freeze-drying and sputter coating.

[14] = system: A. baumanii YQ4; assay: induction of resistance through serial passage; conditions: sub-MIC exposure, 55 passages
[15] = Acinetobacter baumannii, Table 2, agent alone, PDR A. baumannii strain YQ4, unit not in the table, μg/ml, read-out: MIC

Compound: NCC[C@H](O)C(=O)N[C@@H]1C[C@H](N)[C@@H](O[C@H]2O[C@H](CN)[C@@H](O)[C@H](O)[C@H]2O)[C@H](O)[C@H]1O[C@H]1O[C@H](CO)[C@@H](O)[C@H](N)[C@H]1O [AMI, amikacin]
- MIC [1, 15]: > 1020 µg/mL
- FIC with COG1410 [2]: >1

Compound: CC(C)(O/N=C(\C(=O)N[C@@H]1C(=O)N2C(C(=O)[O-])=C(C[n+]3ccccc3)CS[C@H]12)c1csc(N)n1)C(=O)O [CAZ, ceftazidime]
- MIC ([1]; Acinetobacter baumannii): 512 µg/mL (≈ 937 µM)
- FIC with COG1410 [2]: 0.31

Compound: O=C(O)c1cn(C2CC2)c2cc(N3CCNCC3)c(F)cc2c1=O [CIP, ciprofloxacin]
- MIC ([1]; Acinetobacter baumannii): 256 µg/mL (≈ 773 µM)
- FIC with COG1410 [2]: 0.8

Compound: C[C@@H](O)[C@H]1C(=O)N2C(C(=O)O)=C(S[C@@H]3CN[C@H](C(=O)N(C)C)C3)[C@H](C)[C@H]12 [MERO, meropenem]
- MIC [1, 15]: 32 µg/mL (≈ 83.4 µM)
- FIC with COG1410 [2]: 0.56

Compound: CN(C)[C@@H]1C(O)=C(C(N)=O)C(=O)[C@@]2(O)C(O)=C3C(=O)c4c(O)cccc4[C@@](C)(O)[C@H]3C[C@@H]12 [TET, tetracycline]
- MIC [1, 15]: 1020 µg/mL (≈ 2300 µM)
- FIC with COG1410 [2]: 0.31

Compound: CN(C)c1cc(NC(=O)CNC(C)(C)C)c(O)c2c1C[C@H]1C[C@H]3[C@H](N(C)C)C(O)=C(C(N)=O)C(=O)[C@@]3(O)C(O)=C1C2=O [TGC, tigecycline]
- MIC [1, 15]: 32 µg/mL (≈ 54.6 µM)
- FIC with COG1410 [2]: 1.06

Compound: ApoE130−162: fragment containing the receptor-binding domain of ApoE (130–162) (TEELRVRLASHLRKLRKRLLRDADDLQKRLAVY; UniProt P02649 148-180, looked up, fragment)
- antibacterial activity, in words ([3]; compared with Escherichia coli, ref Azuma et al., [2000]): to a lesser extent
- antibacterial activity, in words ([4]; ref Azuma et al., [2000]): active

Compound: LRKLRKRLL [ApoE141-149, ApoE-derived peptide, location 141-149]
- MIC, Sa ([5]; ref (3)): void (“void” indicates that the MIC is more than 100 μM)
- MIC, Pa ([3]; ref (3)): 30 µM

Compound: LRKLRKRLLLRKLRKRLL [ApoEp, ApoE-derived peptide, locations 141-149+141-149]
- MIC, Sa ([5]; ref (1, 3)): 35 µM
- MIC, Pa ([3]; ref (1, 3)): 5 µM

Compound: LRKLRKRLVRLASHLRKLRKRLL [ApoE23, ApoE-derived peptide, locations 141-148+135-149]
- MIC, Ef [6]: void (“void” indicates that the MIC is more than 100 μM)
- MIC, Sa ([5]; ref (1)): 5.4 µM
- MIC, Pa ([3]; ref (1)): 2.7 µM
- MIC, Ec ([4]; ref (1)): 2.0 µM
- MIC, Ab [7]: 2 µM and 2.0 µM

Compound: LRVRLASHLRKLRKRLL [COG133, ApoE-derived peptide, 133–149 of ApoE]
- MIC, Sa ([5]; ref (5)): void (“void” indicates that the MIC is more than 100 μM)
- MIC, Kp ([8]; ref (5)): 3.12 µM
- MIC, Pa ([3]; ref (5)): 25/50

Compound: LRVRLASHLRKLRKRLLR [sApoE133-150, ApoE-derived peptide, location 133-150]
- MIC, Sa ([5]; ref (5)): 3.12 µM
- MIC, Kp ([8]; ref (5)): 6.25 µM
- MIC, Pa ([3]; ref (5)): 25/50

Compound: LRVRLASHLRKLRKRLLRDADDLQKRLAVY [ApoE30, ApoE-derived peptide, location 133-162]
- MIC, Sa ([5]; ref (2)): 16.2 µM
- MIC, Pa ([3]; ref (2)): 8.1 µM
- MIC, Ec ([4]; ref (2)): 1.3 µM

Compound: SAAP-148
- LC99.9 ([9]; 50% pooled plasma): 12.8 µM
- LC99.9 ([9]; PBS): 1.6 µM

Compound: WRKWRKRWWWRKWRKRWW [ApoEp-W, ApoE-derived peptide, locations 141-149+141-149]
- MIC, Sa ([5]; ref (4)): <3.3 µM
- MIC, Kp ([8]; ref (4)): <3.3 µM

Compound: gentamycin [GM]
- MIC ([1]; Table 2, agent alone, PDR A. baumannii strain YQ4, unit not in the table, μg/ml): >1,024 μg/ml
- FIC with COG1410 [2]: >1

Compound: polymyxin B [reference compound]
- ATP leak (extracellular ATP) [10]: released more ATP compared to untreated cells
- SYTO-9/PI staining of treated cells [11]: red fluorescence
- cell membrane integrity by TEM [12]: collapse of cell walls in most of the cells
- cell morphology by SEM [13]: cell lysis and release of cell contents
- increase of MIC after serial passage [14]: 64 fold
